Columns and labels:
[1] = test system: Arabidopsis thaliana afb5‐1 mutant line; format: in vivo; settings: for GR50 (DW % of NT) / GR50 (visual injury): afb5‐1, foliar application; for GR50 (DW % of NT): dry weight at 14 DAT; for Resistance ratio (afb5‐1 vs WT), visual injury: ratio of visual injury GR50 values; for Resistance ratio (afb5‐1 vs WT), visual injury / Resistance ratio (afb5‐1 vs WT), DW: foliar application; for Resistance ratio (afb5‐1 vs WT), DW: ratio of dry weight GR50 values
Description: (§1) Bioassays were carried out with the model species Arabidopsis thaliana. The wild type (WT) Col‐0 line was compared to an afb5‐1 mutant line in a Col‐0 background containing a missense mutation of R609K.[11] A. thaliana seeds were sown on Metro‐mix 360 potting mix (Sungro Horticulture) supplemented with vermiculite and stratified for 3 days at 4 °C in the dark. Flats were moved to a growth chamber (as above) and a plastic lid was placed on the flat. On germination, the lid was removed. After 2 weeks in the growth chamber, seedlings were transplanted into 3‐in. pots with Metro‐mix 360 potting mix and moved to a greenhouse. The greenhouse was maintained at a day/night temperature of 23/22 °C and supplemented with light to complete a 16 h photoperiod. Plants were allowed to recover from transplanting for 1 week prior to applications. A. thaliana seedlings were sprayed with test compounds at five rates with four replications. Tests included nontreated and solvent check controls. Individual compound doses varied and were based on plate test data or anecdotal potency. Compounds were formulated as technical material and were initially dissolved in 1 part 97:3 (v/v) acetone: dimethylsufoxide (DMSO) followed by 5 parts 1.5% (v/v) Agridex crop oil concentrate in distilled water to give a final concentration of 1.25% (v/v) Agridex. Formulated compounds were sprayed at a volume of 187 L ha^−1 at a spray height of 43 cm above the plants with an overhead Mandel track sprayer set with 8002 E Tee jet nozzle. Plants were treated at rosette stage just prior to or at initiation of bolting. After spray application, plants were allowed to dry then moved back to the greenhouse. Plants were grown in the greenhouse (same conditions as above) for 2 weeks until harvest. Visual injury/growth reduction observations were made at 7 and 14 days after treatment (DAT) and scored where 0% = no growth reduction and 100% = complete growth reduction or plant death. At 14 DAT the plants were harvested and dried to collect dry weight (DW) biomass.
(§2) The data collected in the foliar application of compounds generated a measure of sensitivity or dose response. The data was analyzed by regression in JMP 10.0 and fit to a nonlinear exponential three parameter fit model:
(§3) where a is the asymptote, b is the scale and c is the rate of growth. The model was used to determine the herbicidal dose that caused 50% reduction in growth (GR50). GR50 values were compared between mutant and WT to give an indication of fold resistance over WT (Table 3). A log‐logistic model[24] was also used to fit the data and gave similar GR50 values with greater standard errors without changing the pattern of responsiveness.

[2] = test system: Arabidopsis thaliana wild type (WT) Col‐0; test: Foliar efficacy bioassay, wild type; format: in vivo; settings: foliar application; for GR50 (DW % of NT): dry weight at 14 DAT
Description: as §1, §2, §3

AtAFB5 [3] = target: T1, AtAFB5 (Arabidopsis thaliana, UniProt Q9LTX2); test: SPR relative binding (co-receptor complex formation with Aux/IAA7 degron), AtAFB5; settings: 50 μM compound, compared to IAA
T1 construct: His10 (N, cleaved yes); eGFP (N, cleaved yes); FLAG (N, cleaved yes); made in house; host or cells: baculovirus; Trichoplusia ni Hi5 cells (virus generated in Sf9)
T1 sequence (Q9LTX2 whole entry, other chains not shown): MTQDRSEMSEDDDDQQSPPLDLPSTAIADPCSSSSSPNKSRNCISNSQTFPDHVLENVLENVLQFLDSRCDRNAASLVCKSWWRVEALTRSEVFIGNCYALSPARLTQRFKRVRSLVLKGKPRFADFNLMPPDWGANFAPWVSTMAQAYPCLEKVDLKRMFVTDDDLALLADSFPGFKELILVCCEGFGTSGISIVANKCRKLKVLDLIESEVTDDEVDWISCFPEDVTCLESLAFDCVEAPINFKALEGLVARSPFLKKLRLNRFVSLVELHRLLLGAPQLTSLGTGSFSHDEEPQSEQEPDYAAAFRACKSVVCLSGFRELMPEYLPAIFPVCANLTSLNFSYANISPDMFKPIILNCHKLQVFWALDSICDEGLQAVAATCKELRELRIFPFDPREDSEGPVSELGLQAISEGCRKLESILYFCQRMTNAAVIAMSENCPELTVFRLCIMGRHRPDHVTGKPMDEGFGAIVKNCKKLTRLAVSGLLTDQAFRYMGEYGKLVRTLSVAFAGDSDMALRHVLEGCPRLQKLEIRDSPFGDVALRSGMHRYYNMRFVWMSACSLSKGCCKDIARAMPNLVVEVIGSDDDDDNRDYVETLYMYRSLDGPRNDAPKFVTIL
T1 sequence (Q39255 whole entry partner, other chains not shown): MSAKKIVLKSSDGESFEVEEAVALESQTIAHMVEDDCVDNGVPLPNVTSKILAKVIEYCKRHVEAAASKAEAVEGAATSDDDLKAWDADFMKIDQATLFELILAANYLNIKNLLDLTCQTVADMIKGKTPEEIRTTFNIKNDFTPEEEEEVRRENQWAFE
Description: (§4) Auxin binding assays using surface plasmon resonance (SPR) were performed on a Biacore 2000 as described previously.[3], [18], [23] Protein was stored on ice and protein concentrations were assayed by A280 nm measurement (nanodrop, Thermo Scientific). Briefly, AtAux/IAA7 degron peptide was immobilized on streptavidin‐coated SPR chips, and binding was measured in the presence of IAA or auxin analogue by recruitment of the TIR1/AFB protein from solution as the co‐receptor complex formed on the chip. Kinetic analyses were performed by single cycle kinetics on a Biacore T200 (Cytiva Life Sciences), titrating compounds against a fixed concentration of TIR1 before injection. The degron peptide density on the chips was controlled so that R max < 300 Response UNits (RU).

AtTIR1 [4] = target: T2, AtTIR1 (Arabidopsis thaliana, UniProt Q570C0); test: SPR relative binding (co-receptor complex formation with Aux/IAA7 degron), AtTIR1; settings: 50 μM compound, compared to IAA
T2 construct: His10 (N, cleaved yes); eGFP (N, cleaved yes); FLAG (N, cleaved yes); made in house; host or cells: baculovirus; Trichoplusia ni Hi5 cells (virus generated in Sf9)
T2 sequence (Q570C0 whole entry, other chains not shown): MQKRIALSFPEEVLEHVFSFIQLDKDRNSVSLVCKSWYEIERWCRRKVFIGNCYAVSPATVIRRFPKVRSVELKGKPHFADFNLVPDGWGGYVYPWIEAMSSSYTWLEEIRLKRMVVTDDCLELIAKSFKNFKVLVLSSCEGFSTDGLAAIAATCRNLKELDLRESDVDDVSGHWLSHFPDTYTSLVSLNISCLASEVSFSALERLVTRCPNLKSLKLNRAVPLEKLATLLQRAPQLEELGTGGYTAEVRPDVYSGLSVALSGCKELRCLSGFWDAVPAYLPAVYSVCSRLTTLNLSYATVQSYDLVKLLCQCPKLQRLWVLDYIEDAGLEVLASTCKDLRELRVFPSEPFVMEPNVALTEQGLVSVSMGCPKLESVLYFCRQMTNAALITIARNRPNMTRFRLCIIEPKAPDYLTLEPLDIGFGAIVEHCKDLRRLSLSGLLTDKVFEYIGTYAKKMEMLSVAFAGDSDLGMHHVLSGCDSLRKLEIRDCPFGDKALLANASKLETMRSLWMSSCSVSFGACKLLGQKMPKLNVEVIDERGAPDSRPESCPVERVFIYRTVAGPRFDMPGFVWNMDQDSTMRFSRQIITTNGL
T2 sequence (Q39255 whole entry partner, other chains not shown): as the sequence (Q39255 whole entry partner, other chains not shown) above
Description: as §4

AtAFB2 [5] = target: T3, AtAFB2 (Arabidopsis thaliana, UniProt Q9LW29); test: SPR relative binding (co-receptor complex formation with Aux/IAA7 degron), AtAFB2; settings: 50 μM compound, compared to IAA
T3 construct: His10 (N, cleaved yes); eGFP (N, cleaved yes); FLAG (N, cleaved yes); made in house; host or cells: baculovirus; Trichoplusia ni Hi5 cells (virus generated in Sf9)
T3 sequence (Q9LW29 whole entry, other chains not shown): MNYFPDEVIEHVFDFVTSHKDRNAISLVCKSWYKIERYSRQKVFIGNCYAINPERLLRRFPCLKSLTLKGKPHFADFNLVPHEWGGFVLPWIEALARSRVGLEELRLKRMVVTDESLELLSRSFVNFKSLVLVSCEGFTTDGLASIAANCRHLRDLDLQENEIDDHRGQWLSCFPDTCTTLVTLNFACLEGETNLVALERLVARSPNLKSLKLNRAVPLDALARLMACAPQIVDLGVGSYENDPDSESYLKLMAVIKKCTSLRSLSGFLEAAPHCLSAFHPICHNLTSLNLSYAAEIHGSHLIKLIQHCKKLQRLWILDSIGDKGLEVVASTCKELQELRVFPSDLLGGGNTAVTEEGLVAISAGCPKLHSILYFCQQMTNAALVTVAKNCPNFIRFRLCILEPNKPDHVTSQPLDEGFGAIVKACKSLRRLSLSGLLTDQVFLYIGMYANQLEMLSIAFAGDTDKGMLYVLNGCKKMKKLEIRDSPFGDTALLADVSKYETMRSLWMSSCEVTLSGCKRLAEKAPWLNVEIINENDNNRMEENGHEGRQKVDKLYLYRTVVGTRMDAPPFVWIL
T3 sequence (Q39255 whole entry partner, other chains not shown): as the sequence (Q39255 whole entry partner, other chains not shown) above
Description: as §4

[6] = test system: Arabidopsis thaliana afb5‐1 seedlings; test: Root growth inhibition bioassay, afb5‐1 mutant; format: in vivo; settings: afb5‐1 vs WT dose-response, 8 days
Description: A. thaliana seed was surface sterilized in 10 mL of 50% bleach and two drops of Tween‐20 for 12 min and rinsed six times with sterile water. Sterile growth media consisted of half‐strength Murashige and Skoog salts supplemented with 0.4% agar and 0.8% sucrose. In a laminar flow hood, 8 mL of liquid media was transferred to sterile test‐tubes placed in a heat block to maintain media in a liquid state. Compounds were previously diluted in 50/50 DMSO/water to a known molar concentration. A 50‐μL aliquot of diluted compound was added to each tube to give a specified final concentration, normally 10, 1, 0.1, 0.01 or 0.001 μM. A single tube was treated with solvent only as a control. Test compounds were mixed into the media by pipetting up and down three times, then 6 mL of media with test compound was added to one well in a six‐well plate, working from low‐to‐high concentration, and allowed to solidify in the laminar flow hood. Approximately 15 sterilized seeds were placed on the solidified surface and the remaining 2 mL of liquid media was added to cover and disperse seeds. Plates were sealed with paraffin and moved to a Conviron growth chamber set to 60% humidity, 25 °C and light intensity 100 μE m^2 s^−1 with a 16 h photoperiod. After 8 days primary root measurements of five random plants were taken by removing plants from media and measuring with a ruler. Treatments were compared against the solvent control to determine percentage root growth inhibition. Each experiment was run twice and averages were combined for analysis.

AtAFB5 [7] = target: T1, AtAFB5; test: biochemical; format: binding; settings: averaged equilibrium dissociation constant, SPR single cycle kinetics; read-out: Ave KD
Description: as §4

AtTIR1 [8] = target: T2, AtTIR1; test: biochemical; format: binding; settings: for Kd: averaged equilibrium dissociation constant, SPR single cycle kinetics, read-out: Ave KD
Description: as §4

AtAFB2 [9] = target: T3, AtAFB2; test: SPR single cycle kinetics, AtAFB2; format: binding; settings: averaged equilibrium dissociation constant, SPR single cycle kinetics; read-out: Ave KD
Description: as §4

Row | Compound | GR50 (DW % of NT) [1] | GR50 (visual injury) [1] | Resistance ratio (afb5‐1 vs WT), visual injury [1] | GR50 (visual injury) [2] | Relative binding (in words) (AtAFB5 [3]) | Relative binding (in words) (AtTIR1 [4]) | Relative binding (in words) (AtAFB2 [5]) | Resistance of afb5‐1 in root growth inhibition (in words) [6] | Resistance ratio (afb5‐1 vs WT), DW [1] | GR50 (DW % of NT) [2] | Kd (AtAFB5 [7]) | Kd (AtTIR1 [8]) | Kd (AtAFB2 [9]) | Fold higher affinity for TIR1 (AtTIR1 [8]; from KD values, TIR1 versus other receptors)
1 | Nc1c(F)c(-c2ccc(Cl)cc2)nc(C(=O)O)c1Cl [DAS534] | 1.2 g ai ha^−1 | 4.3 g ai ha^−1 | 10.8 | 0.4 g ai ha^−1 | strong bias for binding to AtAFB5 |  |  |  |  |  |  |  |  | 
2 | Cc1cc(Cl)ccc1OCC(=O)O [MCPA, 2‐methyl‐4‐chlorophenoxyacetic acid] |  |  |  |  | lower binding | lower binding | lower binding |  |  |  |  |  |  | 
3 | COc1c(Cl)ccc(Cl)c1C(=O)O [Dicamba] | 60.8 g ai ha^−1 | 290 g ai ha^−1 | 1.7 | 169 g ai ha^−1 | low binding | low binding | low binding | No resistance | 3.7 | 16.5 g ai ha^−1 |  |  |  | 
4 | O=C(O)c1nc(Cl)ccc1Cl [Clopyralid] | 3999 g ai ha^−1 | 4259 g ai ha^−1 | 1.6 | 2698 g ai ha^−1 | relatively low binding | relatively low binding | relatively low binding | considerable resistance |  | 497 g ai ha^−1 |  |  |  | 
5 | O=C(O)COc1nc(Cl)c(Cl)cc1Cl [Triclopyr] | 18.4 g ai ha^−1 | 41.8 g ai ha^−1 | 1.3 | 31.8 g ai ha^−1 | lower binding than IAA | lower binding than IAA | lower binding than IAA |  | 3.9 | 4.7 g ai ha^−1 |  |  |  | 
6 | Nc1cc(Cl)nc(C(=O)O)c1Cl [Aminopyralid] | 68.7 g ai ha^−1 |  |  | 40.1 g ai ha^−1 | relatively low binding | relatively low binding | relatively low binding | considerable resistance | 20.2 | 3.4 g ai ha^−1 |  |  |  | 
7 | O=C(O)Cc1cccc2ccccc12 [1‐NAA, 1‐napthaleneacetic acid] |  |  |  |  |  |  |  | No resistance |  |  |  |  |  | 
8 | Cc1cc(Cl)ccc1OC(C)C(=O)O (centres unmarked) [mecoprop] |  |  |  |  | lower binding | lower binding | lower binding |  |  |  |  |  |  | 
9 | Nc1c(Cl)c(F)nc(OCC(=O)O)c1Cl [Fluroxypyr] | 84.1 g ai ha^−1 | 310 g ai ha^−1 | 1.3 | 234 g ai ha^−1 | lower binding than IAA | lower binding than IAA | lower binding than IAA |  | 2.4 | 35.7 g ai ha^−1 | 95 µM | 18 µM | 45 µM | 
10 | CC(Oc1ccc(Cl)cc1Cl)C(=O)O (centres unmarked) [dichlorprop] |  |  |  |  | lower binding | lower binding | lower binding |  |  |  |  |  |  | 
11 | Nc1nc(C2CC2)nc(C(=O)O)c1Cl [Aminocyclopyrachlor] | 8.3 g ai ha^−1 | 36.8 g ai ha^−1 | 5.3 | 7 g ai ha^−1 |  |  |  | considerable resistance | 1.9 | 4.4 g ai ha^−1 |  |  |  | 
12 | O=C(O)Cc1c[nH]c2ccccc12 [IAA, indole‐3‐acetic acid] |  |  |  |  |  |  |  |  |  |  | 33 µM | 7.9 µM | 12.6 µM | 4 fold

Source: PMC10952535, “The differential binding and biological efficacy of auxin herbicides” (Pest Management Science, 2022)
